Measured values: US20100130607A1, “NEUROPROTECTION IN DEMYELINATING DISEASES” (priority 2007, published 2010)
“Also recorded” adds a separate entry of the source. Where a name gives a salt, the structure may show the parent alone.

Legend:
MOG-EAE in C57BL/6 mice [1] = assay: Clinical course (clinical score) of active MOG-EAE; assay type: in vivo; conditions: oral, from day -20, up to 72 days p.i., vs methocel control
Method: Treatment started at day -20 before the injection of MOG. The following compounds were administered orally to three groups of mice as follows: 1) Ca-monomethyl fumarate 5 mg/kg body weight bid; 2) dimethyl fumarate 15 mg/kg body weight bid; 3) 0.08% methocel as control. For analyzing the clinical course, data was pooled from two experiments (one experiment with 6 mice and another with 8 mice per group yielding a total number of 14 mice per experimental group). Clinical evaluation-Symptoms were scored 1-10 on a daily basis as described in Linker et al., Nat. Med., 2002, […] (see also Hartung et al., Brain, 1988, 11, 1039-1059). Briefly, disease severity was scored as follows: 0, normal; 1, reduced tone of tail; 2, limp tail, impaired righting; 3, absent righting; 4, gait ataxia; 5, mild paraparesis of hindlimbs; 6, moderate paraparesis; 7, severe paraparesis or paraplegia; 8, tetraparesis; 9, moribund; 10, death. Relapses were defined as deterioration by 2 points or more within 2 days. […] Animals were pooled from two experiments (total number of 14 mice per group). Mice were followed until the late phase of the disease (72 days p.i.).

MOG-EAE in C57BL/6 mice [2] = assay: Blinded histological analysis of spinal cord in MOG-EAE, 72 days p.i.; assay type: in vivo; conditions: oral, vs methocel control; for numbers of CD 3 positive T cells infiltrating the spinal cord / numbers of Mac-3 positive macrophages and microglia infiltrating the spinal cord: 72 days after induction of MOG-EAE; for axonal loss (relative axonal density) / level of demyelination (% white matter): spinal cord, 72 days p.i.
Method: Treatment started at day -20 before the injection of MOG. The following compounds were administered orally to three groups of mice as follows: 1) Ca-monomethyl fumarate 5 mg/kg body weight bid; 2) dimethyl fumarate 15 mg/kg body weight bid; 3) 0.08% methocel as control. For analyzing the clinical course, data was pooled from two experiments (one experiment with 6 mice and another with 8 mice per group yielding a total number of 14 mice per experimental group). Histology-One experiment was terminated on day 72 p.i. for histologic evaluation. At that time point, 6 mice in the MMF and 6 mice in the control group were available for analysis. The DMF group consisted of 4 mice (2 non-EAE related drop-outs). Mice were anesthetized with ether, bled and perfused with 25 ml Ringer solution and 10 ml of 4% paraformaldehyde in buffered PBS. Spinal cord was dissected out and fixed overnight in 4% paraformaldehyde in buffered PBS at 4° C. before embedding in paraffin. Paraffin sections were stained with hematoxylin and eosin for visualization of inflammatory infiltrates and Luxol fast blue for visualization of demyelination. Coded sections from cervical, thoracic and lumbar spinal cord were evaluated by a blinded observer by means of overlaying a stereological grid and counting mean CD3 and Mac-3 positive cells within 3 visual fields (each 0.096 mm^2) with the most intense pathology under a 400-fold magnification. The extent of demyelination was assessed by relating the number of grid squares with demyelination to the total number of grid squares containing white matter over an average of 8-10 independent levels of spinal cord per mouse. CD3, Mac-3 positive cells and APP positive axons were quantified on 3 representative sections, each one of cervical, thoracic and lumbar spinal cord by counting 2 defined areas with the most intense pathology under a 40-fold magnification. Histological evaluation was performed as described in Eugster et al., Eur. J. Immunol., 1999, […].

[3] = Ca-monomethyl fumarate 5 mg/kg bid

| Structure (SMILES) | clinical score / disease course (MOG-EAE in C57BL/6 mice [1]; dimethyl fumarate 15 mg/kg body weight bid) | numbers of CD 3 positive T cells infiltrating the spinal cord (MOG-EAE in C57BL/6 mice [2]; dimethyl fumarate 15 mg/kg bid) | numbers of Mac-3 positive macrophages and microglia infiltrating the spinal cord (MOG-EAE in C57BL/6 mice [2]; dimethyl fumarate 15 mg/kg bid) | axonal loss (relative axonal density) (MOG-EAE in C57BL/6 mice [2]; dimethyl fumarate 15 mg/kg bid) | level of demyelination (% white matter) (MOG-EAE in C57BL/6 mice [2]; dimethyl fumarate 15 mg/kg bid) | clinical score / disease course (MOG-EAE in C57BL/6 mice [1]; Ca-monomethyl fumarate 5 mg/kg body weight bid) | numbers of CD 3 positive T cells infiltrating the spinal cord (MOG-EAE in C57BL/6 mice [2]; [3]) | numbers of Mac-3 positive macrophages and microglia infiltrating the spinal cord (MOG-EAE in C57BL/6 mice [2]; [3]) | axonal loss (relative axonal density) (MOG-EAE in C57BL/6 mice [2]; [3]) | level of demyelination (% white matter) (MOG-EAE in C57BL/6 mice [2]; [3]) |
| --- | --- | --- | --- | --- | --- | --- | --- | --- | --- | --- |
| COC(=O)/C=C/C(=O)OC [DMF, dimethyl fumarate, reference compound] | significantly milder disease course; also recorded: effective to reduce the clinical score up to 72 days p.i | not significantly different | not significantly different | reduced | reduced | – | – | – | – | – |
| COC(=O)/C=C/C(=O)O [MMF, Ca-monomethyl fumarate] | – | – | – | – | – | not sufficient to significantly affect the clinical score | not significantly different | not significantly different | reduced demyelination and axonal loss | reduced demyelination and axonal loss |
